The record followed here is PubChem BioAssay (NCI).

Several values for one entry are separate records, joined by “and”; a condition that tells them apart may be missing. Equal entries are not always repeated.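 How tested: cells in 96-well plates exposed to compound for 48 hours at five concentrations. GI50: concentration for 50% inhibition of growth. TGI: concentration producing complete growth inhibition.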

Experiment in all cases: NCI tumour cell line growth inhibition, 48 h
In assay [1] the test system is DLD-1 colon.
For assay [2], the system named is SN12K1 renal.
For assay [3], the system named is P388 leukemia.
Assay [4] deals with P388/ADR leukemia.

`CCCOP(=S)(N1CC1)N1CC1` displayed a TGI in assay [1] of more than 100 µM.
Same read-out and setting: for `CCCc1cc(-c2ccc(-c3cc(CCC)c(C=O)[nH]3)s2)[nH]c1C=O` the value was more than 100 µM; for `CN(C)Cc1[nH]c2ccccc2c1C(=O)c1ccccc1`, more than 100 µM; for `Cc1ccccc1NC(=O)CSc1nnc(Cc2ccccc2)o1`, more than 100 µM.
In assay [1], `CC(=O)C1=NN(c2ccccc2)C2(S1)SC(c1ccccc1)(c1ccccc1)c1ccccc12` (stereo not drawn) registered a TGI of more than 100 µM.
`COc1ccc(C2C(Cl)C(=O)N2NC(=O)c2ccccc2O)cc1OC` (stereo not drawn): in assay [1], the TGI was more than 100 µM.
`O=C1c2ccccc2C(=O)c2c(O)c(NCCNCCO)cc(O)c21` showed a TGI in assay [1] of 11.1 µM.
In turn, `Cc1ccc(F)c2c(=O)cc(-c3ccccc3)[nH]c12` returned a TGI in assay [1] of more than 100 µM.
In assay [1], `Cc1nc2nn(C)cc2c(=O)n1/N=C/c1ccccc1` returned a TGI of more than 100 µM.
Still for that read-out and setting: for `COc1nc(OC)nc(Sc2ccc(Sc3ccc(Sc4nc(OC)nc(OC)n4)cc3)cc2)n1` the value was more than 100 µM.
`C(=N/NC1=NCCN1)/c1c2ccccc2c(/C=N\NC2=NCCN2)c2ccccc12`: the GI50 was 68.8 nM in assay [2], 56.1 nM in assay [3], 1320 nM in assay [1] and 86.6 µM in assay [4]. Moreover, the TGI in assay [2] was 933 nM and 222 nM; in assay [3], 571 nM and 1080 nM; in assay [1], 27.9 µM and 250 µM; in assay [4], 116 µM.
